Experimental data taken from patent publication US20230364061A1, “THIAZOLIDINE DERIVATIVES FOR INHIBITING CAV3.2-USP5 INTERACTIONS” (Zymedyne Therapeutics Inc., priority 2020, published 2023).

Key:
[1] = test system: recombinant USP5 (long or short splice variant); assay: USP5 deubiquitinase (DUB) activity assay; type: biochemical; conditions: recombinant long or short form of USP5, fluorescence over time (FIG. 8)
Experimental: FIG. 8 examines the effect of exemplary compound II-1 on in vitro deubiqutinase activity of USP5. Here recombinant USP5 (either the long or the short splice variant) is incubated with a ubiquitinated substrate, and deubiquitination is measured via a fluorescence readout as a function of time.
To rule out the possibility that exemplary compound II-1 might mediate its analgesic effects by altering the deubiquitinase (DUB) activity of USPS rather than by disrupting the interactions with the channel, a DUB assays was conducted (FIG. 8). Here, a ubiquitinated substrate (ubiquitin-rhodamine110-glycine) is incubated with recombinant long or short forms of USP5, and deubiquitination of the substrate as a function of time is measured via a fluorescence readout. Both the long form and the short form of USP5 lead to deubiquitination of the substrate, as evident from an increasing and plateauing fluorescence signal (528 nm emission in response to 485 nm excitation). The commercially available DUB inhibitor Degrasyn which is used as a positive control prevents this.

[2] = biological target: T1, USP5-Cav3.2 interaction (recombinant USP5 binding to immobilized Cav3.2 domain III-IV linker peptides) (Homo sapiens, UniProt P45974); assay: Cav3.2-USP5 ELISA assay; conditions: for Percent Inhibition: Cav3.2-USP5 ELISA of Example 1, concentration not given
T1 sequence (P45974 1-858): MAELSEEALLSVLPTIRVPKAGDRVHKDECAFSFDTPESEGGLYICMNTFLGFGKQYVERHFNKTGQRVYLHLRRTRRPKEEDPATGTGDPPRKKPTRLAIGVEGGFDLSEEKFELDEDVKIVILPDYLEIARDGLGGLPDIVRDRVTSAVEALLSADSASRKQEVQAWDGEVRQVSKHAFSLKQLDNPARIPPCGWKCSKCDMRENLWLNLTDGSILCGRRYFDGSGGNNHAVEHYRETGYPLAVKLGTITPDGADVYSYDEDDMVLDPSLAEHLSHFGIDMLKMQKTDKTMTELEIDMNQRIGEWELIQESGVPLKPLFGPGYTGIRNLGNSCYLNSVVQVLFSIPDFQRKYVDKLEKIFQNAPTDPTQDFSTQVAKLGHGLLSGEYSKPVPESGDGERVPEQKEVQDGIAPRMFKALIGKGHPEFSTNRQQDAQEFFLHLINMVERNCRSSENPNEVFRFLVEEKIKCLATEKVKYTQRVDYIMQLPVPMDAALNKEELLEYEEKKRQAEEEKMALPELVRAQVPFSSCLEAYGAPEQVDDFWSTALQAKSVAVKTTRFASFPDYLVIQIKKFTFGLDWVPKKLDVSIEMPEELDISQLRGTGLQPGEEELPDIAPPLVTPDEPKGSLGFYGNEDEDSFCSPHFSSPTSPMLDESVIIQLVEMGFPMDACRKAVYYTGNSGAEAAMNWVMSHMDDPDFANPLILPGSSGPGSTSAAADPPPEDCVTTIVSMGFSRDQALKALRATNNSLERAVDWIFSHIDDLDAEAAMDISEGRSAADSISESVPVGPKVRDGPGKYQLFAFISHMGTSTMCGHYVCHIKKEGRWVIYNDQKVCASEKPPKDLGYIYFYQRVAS
From the text: FIG. 3 is a schematic of the high throughput ELISA assay used to screen the exemplary compound of the applications. Here the Cav3.2 III-1V linker is immobilized and then recombinant USP5 is allowed to bind. Binding is detected via antibodies conjugated to horseradish peroxidase for a fluorescent readout. Compounds are applied and a reduction in fluorescence is indicative of a disruption of USP5-Cav3.2 interactions.
A high throughput ELISA assay was used to screen the exemplary compounds of the applications (FIG. 3). The ELISA is based on the binding of recombinant USP5 to immobilized Cav3.2 domain […] linker peptides. Binding interactions were detected using USP5 antibodies, and a secondary antibody conjugated to horseradish peroxidase, leading to a fluorescence readout. The ELISA was converted into a high through-put format 384 well plate. Multiple compound libraries were screened for small organic molecules that disrupt the USP5—Cav3.2 interaction. A number of hits were identified at the standard screening concentration, and the dose dependence of hits was investigated. Select actives were subjected to a secondary biochemical assays based on co-immunoprecipitations of USP5 and Cav3.2 from mouse neuronal tissue.
In the ELISA assay from Example 1, compound II-1 was added at varying concentrations, and the ability of II-1 to inhibit the USP5-Cav3.2 interaction examined. The percentage of inhibition as a function of drug concentration could be fitted using the Hill equation.

[3] = test system: formalin induced nocifensive responses; assay: Formalin-induced pain assay; type: in vivo; conditions: mice, intrathecal delivery, both phases (FIG. 5)
Experimental: Formalin was injected into the hindpaw of a mouse, and the time that the mouse spent licking and biting its paw was determined. There are two phases of these nocifensive behavioral responses—phase I occurs immediately after formalin injection and reflects an acute response, phase II occurs approximately thirty minutes after formalin injection and reflects inflammatory pain. II-1 inhibited the duration of both phases in a dose dependent manner. […] Formalin injection into the hindpaw mediates nocifensive responses (paw licking, biting). There is an initial phase that reflects an acute responses to formalin injection, followed by a quiescent period and a second phase of nocifensive behaviors that reflects inflammatory pain. The duration of the responses is reflective of the amount of pain. […] The same doses were then used in a chronic inflammatory pain assay (i.e. CFA).

[4] = test system: CFA induced thermal hypersensitivity; assay: Complete Freund's Adjuvant (CFA) model of chronic inflammatory pain, thermal hypersensitivity; type: in vivo, mice
Experimental: The latency to paw withdrawal in response to radiate heat to the paw decreases after CFA, and II-1 reverses this hypersensitivity in a dose dependent manner, indicating a strong analgesic effect of II-1. […] CFA injection into the hind paw leads to long lasting (weeks) mechanical and thermal hypersensitivity of the hind paw that is reflective of chronic inflammatory pain states. Thermal hypersensitivity is assessed by applying a radiant heat source to the hind paw of the animal and measuring the time between application of the heat source and the withdrawal of the paw. In CFA treated animals, the withdrawal latencies are dramatically shortened, and reflective of thermal hypersensitivity (i.e. thermal pain responses). […] Two asterisks indicate statistical significance at the 0.01 level, three asterisks indicate statistical significance at the 0.001 level relative to CFA+vehicle. FIG. 7 compares the effects of exemplary compound II-1 on CFA mediated thermal hypersensitivity in wild type mice and in mice lacking Cav3.2 channels (45 minutes after administration of the compound). […] Cav3.2^-/- mice have compensatory mechanisms that lead to increased thermal hypersensitivity in response to CFA even though Cav3.2 channels are absent.

[5] = test system: CFA induced thermal hypersensitivity in Cav3.2-/- mice; assay: CFA thermal hypersensitivity in Cav3.2 null mice; type: in vivo; conditions: 45 minutes after administration (FIG. 7)
Experimental: FIG. 7 compares the effects of exemplary compound II-1 on CFA mediated thermal hypersensitivity in wild type mice and in mice lacking Cav3.2 channels (45 minutes after administration of the compound). […] Cav3.2^−/− mice have compensatory mechanisms that lead to increased thermal hypersensitivity in response to CFA even though Cav3.2 channels are absent.

[6] = biological target: T2, association of USP5 and Cav3.2 channels (Mus musculus, UniProt P56399); assay: Co-immunoprecipitation of USP5 with Cav3.2 from brain lysate; type: binding; conditions: 1 uM compound, whole brain lysates, n=5 (FIG. 4)
T2 construct: using whole brain lysates and probed for USP5; from tissue; host or cells: mouse whole brain homogenate/lysate
T2 sequence (P56399 1-858): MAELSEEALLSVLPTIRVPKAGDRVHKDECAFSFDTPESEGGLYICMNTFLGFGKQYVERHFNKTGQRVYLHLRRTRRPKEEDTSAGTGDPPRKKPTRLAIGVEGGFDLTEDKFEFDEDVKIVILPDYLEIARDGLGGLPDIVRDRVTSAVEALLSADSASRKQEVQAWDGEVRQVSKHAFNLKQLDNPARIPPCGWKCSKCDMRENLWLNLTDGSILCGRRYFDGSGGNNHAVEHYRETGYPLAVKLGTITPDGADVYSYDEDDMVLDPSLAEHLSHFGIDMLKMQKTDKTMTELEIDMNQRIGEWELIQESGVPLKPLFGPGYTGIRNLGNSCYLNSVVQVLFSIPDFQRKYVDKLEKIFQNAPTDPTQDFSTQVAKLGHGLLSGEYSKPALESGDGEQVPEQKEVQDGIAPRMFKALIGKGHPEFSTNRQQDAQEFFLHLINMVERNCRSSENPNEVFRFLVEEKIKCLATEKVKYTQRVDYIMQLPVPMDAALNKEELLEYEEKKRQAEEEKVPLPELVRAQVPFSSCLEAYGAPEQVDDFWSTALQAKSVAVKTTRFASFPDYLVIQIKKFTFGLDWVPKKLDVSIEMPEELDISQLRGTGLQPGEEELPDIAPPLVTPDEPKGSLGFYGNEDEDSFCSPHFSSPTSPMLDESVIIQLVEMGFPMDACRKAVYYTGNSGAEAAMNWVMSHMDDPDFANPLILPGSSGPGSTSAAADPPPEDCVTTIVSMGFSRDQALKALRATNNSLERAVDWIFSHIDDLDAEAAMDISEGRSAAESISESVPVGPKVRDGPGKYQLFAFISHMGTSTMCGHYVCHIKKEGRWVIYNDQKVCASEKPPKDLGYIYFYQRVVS
Experimental: FIG. 4 is a graph showing the results of the of immunoprecipitation assay with Cav3.2 channels and a rabbit 3.2 polyclonal antibody using whole brain lysates and probed for USP5 (n=5). Quantifications were normalized to bound USP5 to Cav3.2 IP/alpha-tubulin. 1 uM of exemplary compounds II-1 and II-2 were used in the incubation. 5 uM of a positive control compound was used in the incubation.
A co-immunoprecipitation assay was implemented as a secondary screen for actives derived from the compound library screen. Moause brain homogenate was prepared, and the tissue containing was incubated with a rabbit Cav3.2 polyclonal antibody to immunoprecipitate Cav3.2 channel complexes. The precipitates were run on a Western blot and probed with an antibody against USP5 (n=5). Band intensities for bound USP5 were quantified and normalized to alpha-tubulin (FIG. 4). 1 μM of exemplary compounds II-1 and II-2 were used in the incubation. 5 μM of a control compound identified in a previous library screen was used as a positive control.

[7] = test system: diabetic, visceral, inflammatory and neuropathic pain; conditions: hits of an initial CDRD active compound library screen; cited from earlier work

Structure (SMILES)	Percent Inhibition [2]	further results
CCC[C@H](NC(=O)/C(C#N)=C/c1cccc(Br)n1)c1ccccc1 [Degrasyn, reference compound]	–	deubiquitination of ubiquitin-rhodamine110-glycine by USP5 (fluorescence readout) [1]: inhibits this fluorescence signal
CC(O)C(NCC1SC(=S)NC1=O)C(=O)O (stereo not drawn) [II-1]	100%	dose-response of percent inhibition in the Cav3.2-USP5 ELISA ([2]; varying concentrations, fitted with the Hill equation (FIG. 9)): dose dependence of the effect; duration of nocifensive responses (paw licking, biting), phase I and phase II [3]: response time is shortened in a dose dependent manner; thermal paw withdrawal latency after CFA ([4]; mice, intrathecal delivery, dose response (FIG. 6)): shortened latencies are reversed in a dose dependent manner; thermal paw withdrawal latency after CFA, wild type mice ([4]; wild type Cav3.2+/+ mice, 45 minutes after administration (FIG. 7)): reversed the CFA-induced reduction in thermal paw withdrawal latencies; thermal paw withdrawal latency after CFA, Cav3.2 knockout mice [5]: no longer able to reverse CFA induced thermal hypersensitivity; deubiquitination of ubiquitin-rhodamine110-glycine by USP5 (fluorescence readout) [1]: does not mediate DUB inhibition; USP5 bound to Cav3.2 IP, normalized to alpha-tubulin [6]: disrupt the association of USP5 and Cav3.2 channels in neuronal tissue
CC(CO)(CO)NCC1SC(=S)NC1=O (stereo not drawn) [II-2]	100%	deubiquitination of ubiquitin-rhodamine110-glycine by USP5 (fluorescence readout) [1]: fail to inhibit deubiquitination; USP5 bound to Cav3.2 IP, normalized to alpha-tubulin [6]: disrupt the association of USP5 and Cav3.2 channels in neuronal tissue
CC(C)C(NCC1SC(=S)NC1=O)C(=O)O (stereo not drawn) [II-3]	100%	–
CC(C)CC(NCC1SC(=S)NC1=O)C(=O)O (stereo not drawn) [II-4]	100%	–
CCC(C)C(NCC1SC(=S)NC1=O)C(=O)O (stereo not drawn) [II-5]	86%	–
NCCCCC(NCC1SC(=S)NC1=O)C(=O)O (stereo not drawn) [II-6]	87%	–
O=C(O)CN(CC(=O)O)CC1SC(=S)NC1=O (stereo not drawn) [II-7]	85%	–
O=C(O)CCNCC1SC(=S)NC1=O (stereo not drawn) [II-8]	82%	–
O=C1NC(=S)SC1CNCCCO (stereo not drawn) [II-9]	6%	–
CC(C)CCC(CCC(C)C)NCC1SC(=S)NC1=O (stereo not drawn) [II-10]	28%	–
O=C1NC(=S)SC1CNC1(CCO)CCCCC1 (stereo not drawn) [II-11]	75%	–
O=C1NC(=S)SC1CNC1CCCCC1 (stereo not drawn) [II-12]	82%	–
O=c1c(O)c(-c2ccc(O)c(O)c2)oc2c(O)c(O)cc(O)c12 [gossypetin]	–	protection from pain in mice [7]: protect from diabetic, visceral, inflammatory and neuropathic pain in mice
Cc1ccc(C(=O)Nc2ccc(S(=O)(=O)O)c3cc(S(=O)(=O)O)cc(S(=O)(=O)O)c23)cc1NC(=O)c1cccc(NC(=O)Nc2cccc(C(=O)Nc3cc(C(=O)Nc4ccc(S(=O)(=O)O)c5cc(S(=O)(=O)O)cc(S(=O)(=O)O)c45)ccc3C)c2)c1 [suramin]	–	protection from pain in mice [7]: protect from diabetic, visceral, inflammatory and neuropathic pain in mice
